# Results published in ChEMBL document CHEMBL1151464 (2008).
# What was measured:
# Type in all cases: functional
# Pseudomonas aeruginosa [1] = experiment: Antibacterial activity against Pseudomonas aeruginosa isolate 368 after 24 hrs by CLSI microdilution method
# Pseudomonas aeruginosa [2] = experiment: Antibacterial activity against Pseudomonas aeruginosa isolate 329 after 24 hrs by CLSI microdilution method
# Acinetobacter baumannii [3] = experiment: Antibacterial activity against Acinetobacter baumannii isolate 926 after 24 hrs by CLSI microdilution method
# Acinetobacter baumannii [4] = experiment: Antibacterial activity against Acinetobacter baumannii isolate 911 after 24 hrs by CLSI microdilution method
# Acinetobacter baumannii [5] = experiment: Antibacterial activity against Acinetobacter baumannii isolate 893 after 24 hrs by CLSI microdilution method
# Pseudomonas aeruginosa [6] = experiment: Antibacterial activity against Pseudomonas aeruginosa isolate 322 after 24 hrs by CLSI microdilution method
# Pseudomonas aeruginosa [7] = experiment: Antibacterial activity against Pseudomonas aeruginosa isolate 319 after 24 hrs by CLSI microdilution method
# Pseudomonas aeruginosa [8] = experiment: Antibacterial activity against Pseudomonas aeruginosa isolate 379 expressing VIM2 beta-lactamase after 24 hrs by CLSI microdilution method
# Acinetobacter baumannii [9] = experiment: Antibacterial activity against Acinetobacter baumannii isolate 902 after 24 hrs by CLSI microdilution method
# Pseudomonas aeruginosa [10] = experiment: Antibacterial activity against Pseudomonas aeruginosa isolate 370 after 24 hrs by CLSI microdilution method
# Acinetobacter baumannii [11] = experiment: Antibacterial activity against Acinetobacter baumannii isolate 931 after 24 hrs by CLSI microdilution method
# Acinetobacter baumannii [12] = experiment: Antibacterial activity against Acinetobacter baumannii isolate 928 after 24 hrs by CLSI microdilution method
# Acinetobacter baumannii [13] = experiment: Antibacterial activity against Acinetobacter baumannii isolate 912 after 24 hrs by CLSI microdilution method
# Acinetobacter baumannii [14] = experiment: Antibacterial activity against Acinetobacter baumannii isolate 915 after 24 hrs by CLSI microdilution method
# Acinetobacter baumannii [15] = experiment: Antibacterial activity against Acinetobacter baumannii isolate 883 after 24 hrs by CLSI microdilution method
# Acinetobacter baumannii [16] = experiment: Antibacterial activity against Acinetobacter baumannii isolate 934 after 24 hrs by CLSI microdilution method
# Pseudomonas aeruginosa [17] = experiment: Antibacterial activity against Pseudomonas aeruginosa isolate 357 after 24 hrs by CLSI microdilution method
# Pseudomonas aeruginosa [18] = experiment: Antibacterial activity against Pseudomonas aeruginosa isolate 338 after 24 hrs by CLSI microdilution method
# Pseudomonas aeruginosa [19] = experiment: Antibacterial activity against Pseudomonas aeruginosa isolate 374 after 24 hrs by CLSI microdilution method
# Pseudomonas aeruginosa [20] = experiment: Antibacterial activity against Pseudomonas aeruginosa isolate 356 after 24 hrs by CLSI microdilution method
# Pseudomonas aeruginosa [21] = experiment: Antibacterial activity against Pseudomonas aeruginosa isolate 345 after 24 hrs by CLSI microdilution method
# Pseudomonas aeruginosa [22] = experiment: Antibacterial activity against Pseudomonas aeruginosa isolate 331 after 24 hrs by CLSI microdilution method
# Pseudomonas aeruginosa [23] = experiment: Antibacterial activity against Pseudomonas aeruginosa isolate 364 after 24 hrs by CLSI microdilution method
# Acinetobacter baumannii [24] = experiment: Antibacterial activity against Acinetobacter baumannii isolate 894 after 24 hrs by CLSI microdilution method
# Pseudomonas aeruginosa [25] = experiment: Antibacterial activity against Pseudomonas aeruginosa isolate 366 after 24 hrs by CLSI microdilution method
# Pseudomonas aeruginosa [26] = experiment: Antibacterial activity against Pseudomonas aeruginosa isolate 337 after 24 hrs by CLSI microdilution method
# Pseudomonas aeruginosa [27] = experiment: Antibacterial activity against Pseudomonas aeruginosa isolate 355 after 24 hrs by CLSI microdilution method
# Pseudomonas aeruginosa [28] = experiment: Antibacterial activity against Pseudomonas aeruginosa isolate 330 after 24 hrs by CLSI microdilution method
# Acinetobacter baumannii [29] = experiment: Antibacterial activity against Acinetobacter baumannii isolate 925 after 24 hrs by CLSI microdilution method
# Pseudomonas aeruginosa [30] = experiment: Antibacterial activity against Pseudomonas aeruginosa isolate 372 after 24 hrs by CLSI microdilution method
# Acinetobacter baumannii [31] = experiment: Antibacterial activity against Acinetobacter baumannii isolate 884 after 24 hrs by CLSI microdilution method
# Acinetobacter baumannii [32] = experiment: Antibacterial activity against Acinetobacter baumannii isolate 892 after 24 hrs by CLSI microdilution method
# Acinetobacter baumannii [33] = experiment: Antibacterial activity against Acinetobacter baumannii isolate 920 after 24 hrs by CLSI microdilution method
# Acinetobacter baumannii [34] = experiment: Antibacterial activity against Acinetobacter baumannii isolate 930 after 24 hrs by CLSI microdilution method
# Acinetobacter baumannii [35] = experiment: Antibacterial activity against Acinetobacter baumannii isolate 909 after 24 hrs by CLSI microdilution method
# Acinetobacter baumannii [36] = experiment: Antibacterial activity against Acinetobacter baumannii isolate 923 after 24 hrs by CLSI microdilution method
# Pseudomonas aeruginosa [37] = experiment: Antibacterial activity against Pseudomonas aeruginosa isolate 352 after 24 hrs by CLSI microdilution method
# Acinetobacter baumannii [38] = experiment: Antibacterial activity against Acinetobacter baumannii isolate 906 after 24 hrs by CLSI microdilution method
# Pseudomonas aeruginosa [39] = experiment: Antibacterial activity against Pseudomonas aeruginosa isolate 335 after 24 hrs by CLSI microdilution method
# Pseudomonas aeruginosa [40] = experiment: Antibacterial activity against Pseudomonas aeruginosa isolate 358 after 24 hrs by CLSI microdilution method
# Acinetobacter baumannii [41] = experiment: Antibacterial activity against Acinetobacter baumannii isolate 922 after 24 hrs by CLSI microdilution method
# Pseudomonas aeruginosa [42] = experiment: Antibacterial activity against Pseudomonas aeruginosa isolate 339 after 24 hrs by CLSI microdilution method
# Pseudomonas aeruginosa [43] = experiment: Antibacterial activity against Pseudomonas aeruginosa isolate 326 after 24 hrs by CLSI microdilution method
# Pseudomonas aeruginosa [44] = experiment: Antibacterial activity against Pseudomonas aeruginosa isolate 328 after 24 hrs by CLSI microdilution method
# Acinetobacter baumannii [45] = experiment: Antibacterial activity against Acinetobacter baumannii isolate 903 after 24 hrs by CLSI microdilution method
# Pseudomonas aeruginosa [46] = experiment: Antibacterial activity against Pseudomonas aeruginosa isolate 371 after 24 hrs by CLSI microdilution method
# Pseudomonas aeruginosa [47] = experiment: Antibacterial activity against Pseudomonas aeruginosa isolate 340 after 24 hrs by CLSI microdilution method
# Acinetobacter baumannii [48] = experiment: Antibacterial activity against Acinetobacter baumannii isolate 889 after 24 hrs by CLSI microdilution method
# Acinetobacter baumannii [49] = experiment: Antibacterial activity against Acinetobacter baumannii isolate 900 after 24 hrs by CLSI microdilution method
# Acinetobacter baumannii [50] = experiment: Antibacterial activity against Acinetobacter baumannii isolate 886 after 24 hrs by CLSI microdilution method
# Acinetobacter baumannii [51] = experiment: Antibacterial activity against Acinetobacter baumannii isolate 896 after 24 hrs by CLSI microdilution method
# Acinetobacter baumannii [52] = experiment: Antibacterial activity against Acinetobacter baumannii isolate 932 expressing OXA-24 and OXA-51 beta-lactamase after 24 hrs by CLSI microdilution method
# Acinetobacter baumannii [53] = experiment: Antibacterial activity against Acinetobacter baumannii isolate 917 after 24 hrs by CLSI microdilution method
# Pseudomonas aeruginosa [54] = experiment: Antibacterial activity against Pseudomonas aeruginosa isolate 332 after 24 hrs by CLSI microdilution method
# Acinetobacter baumannii [55] = experiment: Antibacterial activity against Acinetobacter baumannii isolate 924 after 24 hrs by CLSI microdilution method
# Pseudomonas aeruginosa [56] = experiment: Antibacterial activity against Pseudomonas aeruginosa isolate 363 after 24 hrs by CLSI microdilution method
# Pseudomonas aeruginosa [57] = experiment: Antibacterial activity against Pseudomonas aeruginosa isolate 349 after 24 hrs by CLSI microdilution method
# Acinetobacter baumannii [58] = experiment: Antibacterial activity against Acinetobacter baumannii isolate 927 after 24 hrs by CLSI microdilution method
# Acinetobacter baumannii [59] = experiment: Antibacterial activity against Acinetobacter baumannii isolate 897 after 24 hrs by CLSI microdilution method
sequence,measurement,setting,value
COLISTIN,MIC,Pseudomonas aeruginosa [1],2 µg/mL
same,MIC,Pseudomonas aeruginosa [2],1 µg/mL
same,MIC,Acinetobacter baumannii [3],2 µg/mL
same,MIC,Acinetobacter baumannii [4],8 µg/mL
same,MIC,Acinetobacter baumannii [5],0.5 µg/mL
same,MIC,Pseudomonas aeruginosa [6],0.5 µg/mL
same,MIC,Pseudomonas aeruginosa [7],2 µg/mL
same,MIC,Pseudomonas aeruginosa [8],1 µg/mL
same,MIC,Acinetobacter baumannii [9],2 µg/mL
same,MIC,Pseudomonas aeruginosa [10],2 µg/mL
same,MIC,Acinetobacter baumannii [11],4 µg/mL
same,MIC,Acinetobacter baumannii [12],1 µg/mL
same,MIC,Acinetobacter baumannii [13],0.5 µg/mL
same,MIC,Acinetobacter baumannii [14],1 µg/mL
same,MIC,Acinetobacter baumannii [15],32 µg/mL
same,MIC,Acinetobacter baumannii [16],8 µg/mL
same,MIC,Pseudomonas aeruginosa [17],2 µg/mL
same,MIC,Pseudomonas aeruginosa [18],1 µg/mL
same,MIC,Pseudomonas aeruginosa [19],1 µg/mL
same,MIC,Pseudomonas aeruginosa [20],1 µg/mL
same,MIC,Pseudomonas aeruginosa [21],1 µg/mL
same,MIC,Pseudomonas aeruginosa [22],0.5 µg/mL
same,MIC,Pseudomonas aeruginosa [23],1 µg/mL
same,MIC,Acinetobacter baumannii [24],1 µg/mL
same,MIC,Pseudomonas aeruginosa [25],0.5 µg/mL
same,MIC,Pseudomonas aeruginosa [26],1 µg/mL
same,MIC,Pseudomonas aeruginosa [27],1 µg/mL
same,MIC,Pseudomonas aeruginosa [28],1 µg/mL
same,MIC,Acinetobacter baumannii [29],16 µg/mL
same,MIC,Pseudomonas aeruginosa [30],1 µg/mL
same,MIC,Acinetobacter baumannii [31],2 µg/mL
same,MIC,Acinetobacter baumannii [32],16 µg/mL
same,MIC,Acinetobacter baumannii [33],8 µg/mL
same,MIC,Acinetobacter baumannii [34],0.25 µg/mL
same,MIC,Acinetobacter baumannii [35],1 µg/mL
same,MIC,Acinetobacter baumannii [36],4 µg/mL
same,MIC,Pseudomonas aeruginosa [37],4 µg/mL
same,MIC,Acinetobacter baumannii [38],4 µg/mL
same,MIC,Pseudomonas aeruginosa [39],1 µg/mL
same,MIC,Pseudomonas aeruginosa [40],1 µg/mL
same,MIC,Acinetobacter baumannii [41],4 µg/mL
same,MIC,Pseudomonas aeruginosa [42],1 µg/mL
same,MIC,Pseudomonas aeruginosa [43],1 µg/mL
same,MIC,Pseudomonas aeruginosa [44],2 µg/mL
same,MIC,Acinetobacter baumannii [45],0.25 µg/mL
same,MIC,Pseudomonas aeruginosa [46],1 µg/mL
same,MIC,Pseudomonas aeruginosa [47],1 µg/mL
same,MIC,Acinetobacter baumannii [48],16 µg/mL
same,MIC,Acinetobacter baumannii [49],2 µg/mL
same,MIC,Acinetobacter baumannii [50],1 µg/mL
same,MIC,Acinetobacter baumannii [51],2 µg/mL
same,MIC,Acinetobacter baumannii [52],0.5 µg/mL
same,MIC,Acinetobacter baumannii [53],4 µg/mL
same,MIC,Pseudomonas aeruginosa [54],0.5 µg/mL
same,MIC,Acinetobacter baumannii [55],2 µg/mL
same,MIC,Pseudomonas aeruginosa [56],0.25 µg/mL
same,MIC,Pseudomonas aeruginosa [57],1 µg/mL
same,MIC,Acinetobacter baumannii [58],2 µg/mL
same,MIC,Acinetobacter baumannii [59],4 µg/mL
